According to ChEMBL document CHEMBL1201862, “PubChem BioAssay data set” (2004):
One block for each compound: values may come before it. Calls of active or inactive are those of the source.

Experiments:
[1] = Shn3 3'UTR reporter inhibitors, dose response, cell-based, Clone20 osteoblasts, firefly luciferase, cherry-picked (AID 624132); assay type: functional;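 also: firefly luciferase luminescence from reporter carrying the Shn3 3'UTR in osteoblasts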
[2] = control 3'UTR Renilla luciferase suppression, dose response, counter-screen for Shn3 inhibitor project, cell-based, Clone20-Shn3RL, cherry-picked (AID 624133); assay type: functional
[3] = reduction of Shn3 3'UTR firefly luciferase signal, dose response, Schnurri-3 inhibitor project, cell-based, Clone20 osteoblasts, cherry-pick, set 2 (AID 720490); assay type: functional;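 also: actives lower the luminescence signal as inhibitors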
[4] = inhibitors of control Renilla luciferase reporter, dose response, counter-screen for Shn3 3'UTR targeting project, Clone20-Shn3RL cells, dual-Glo, cherry-pick, set 2 (AID 720724); assay type: functional, cell-based; conditions: Dual-Go Shn3RL
[5] = target: ATP-dependent translocase ABCB1 (Homo sapiens, UniProt P08183); assay: ABCB1 efflux inhibition concentration-response, dose response, Jurkat-DNR cells, JC-1, flow cytometry, follow-up (AID 489002); assay type: functional
[6] = target: Paired box protein Pax-8 (Homo sapiens, UniProt Q06710); assay: inhibitors of PAX8-driven TPO luciferase reporter, dose response, RMG-I cells, cherry-pick (AID 687027); assay type: functional, cell-based;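 also: luciferase reporter driven by Pax8 target thyroperoxidase promoter measured by SteadyGlo luminescence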
[7] = PAX2 cell-based inhibition, dose response, selectivity assay for PAX8 inhibitor project, plate reader, dry powder samples (AID 743048); assay type: functional;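 also: HEK293 cells carrying a WT1 promoter luciferase reporter driven by expressed Pax2; potency is for inhibition of Pax2 driven reporter signal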
[8] = inhibitors of CMV-promoter luciferase reporter, dose response, counter-screen for Pax8 inhibitor project, cell-based, HEK293, luminescence, dry powder (AID 743020); assay type: functional
[9] = NIH:OVCAR-3 ovarian cancer cell cytotoxicity, dose response, PAX8 inhibitor project, plate reader, dry powder samples (AID 743044); assay type: functional, cell-based
[10] = PAX5 activity inhibitors, dose response, selectivity assay for PAX8 inhibitor project, cell-based, plate reader, dry powder samples (AID 743047); assay type: functional;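 also: HEK293 cells carrying a Pax5 driven CD19 promoter luciferase reporter; potency of inhibitors that lower reporter luminescence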
[11] = cytotoxicity in OVCAR4 cells, dose response, cytotoxicity control for PAX8 inhibitor project, cell-based, plate reader, dry powder, SA11 (AID 743150); assay type: functional; conditions: OVCAR-4
[12] = cytotoxicity in COV434 cells, dose response, cytotoxicity control for PAX8 inhibitor project, cell-based, plate reader, dry powder, SA7 (AID 743145); assay type: functional
[13] = non-specific cell cytotoxicity, dose response, cytotoxicity control for PAX8 inhibitor project, plate reader, dry powder samples (AID 743021); assay type: functional, cell-based
[14] = cytotoxicity in OVCAR8 ovarian cancer cells, dose response, PAX8 project, cell-based, plate reader, dry powder samples (AID 743197); assay type: functional; conditions: OVCAR-8
[15] = cytotoxicity dependent on PAX8, dose response, cell-based, plate reader, dry powder (AID 743049); assay type: functional
[16] = cells; assay type: functional, cell-based
[17] = target: T1, Trace amine-associated receptor 1 (Homo sapiens, UniProt Q96RJ0); assay: Fluorescence-based cell-based high throughput dose response assay to identify agonists of the human trace amine associated receptor 1 (TAAR1).; assay type: functional
[18] = target: T1, Trace amine-associated receptor 1; assay: Counterscreen for agonists of the human trace amine associated receptor 1 (hTAAR1): Fluorescence-based cell-based high throughput dose response assay to identify hTAAR1 agonist that also desensitize TAAR1 receptor response.; assay type: functional
[19] = cells; assay type: functional, cell-based; remark: listed apart in the source
[20] = system: Vero; assay: Vero cell toxicity, dose response, cytotoxicity control, plate reader, cherry-pick samples (AID 687020); assay type: functional, cell-based; conditions: Chlorocebus sabaeus
[21] = target: Protein disulfide-isomerase (Homo sapiens, UniProt P07237); assay: PDI inhibitors, insulin turbidity readout, confirmation, biochemical, dry powder samples, set 2 (AID 652146)
[22] = target: Metabotropic glutamate receptor 5 (Rattus norvegicus, UniProt P31424); assay: Identification of a glycine sulfonamide based non-MPEP site positive allosteric potentiator (PAM) of mGlu5 (calcium_assay).; assay type: functional
[23] = HEK293T cytotoxicity, dose response, cytotoxicity control for miR-122 modulator project, cell-based, inhibitor set, cherry-pick, set 2 (AID 720697); assay type: functional
[24] = LGR2 antagonists, dose response, cell-based, HEK293, CRE-luciferase reporter, cherry pick (AID 743342); assay type: functional
[25] = MITF Orthogonal Assay: SK-MEL-5 CTG Assay Measured in Cell-Based System Using Plate Reader - 2084-02_Inhibitor_Dose_DryPowder_Activity_Set7.; assay type: functional
[26] = MITF: Counter assay: A375 proliferation Measured in Cell-Based System Using Plate Reader - 2084-03_Inhibitor_Dose_DryPowder_Activity_Set8.; assay type: functional; conditions: A-375
[27] = CFTR ΔF508 corrector activity in bronchial cells, dose response, human bronchial epithelial cells, plate reader, cherry-pick, two tests (AID 743267); assay type: functional, cell-based

T1 sequence (Q96RJ0 whole entry): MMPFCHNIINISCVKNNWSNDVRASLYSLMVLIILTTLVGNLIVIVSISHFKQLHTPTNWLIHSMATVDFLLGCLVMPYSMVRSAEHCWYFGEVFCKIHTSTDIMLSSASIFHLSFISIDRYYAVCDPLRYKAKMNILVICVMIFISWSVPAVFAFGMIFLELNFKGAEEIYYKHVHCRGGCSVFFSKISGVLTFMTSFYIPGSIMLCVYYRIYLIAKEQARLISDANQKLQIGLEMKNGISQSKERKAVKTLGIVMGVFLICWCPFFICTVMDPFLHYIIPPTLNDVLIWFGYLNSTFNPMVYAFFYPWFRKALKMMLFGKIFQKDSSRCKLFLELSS
Metabotropic glutamate receptor 5, sequence (P31424 whole entry): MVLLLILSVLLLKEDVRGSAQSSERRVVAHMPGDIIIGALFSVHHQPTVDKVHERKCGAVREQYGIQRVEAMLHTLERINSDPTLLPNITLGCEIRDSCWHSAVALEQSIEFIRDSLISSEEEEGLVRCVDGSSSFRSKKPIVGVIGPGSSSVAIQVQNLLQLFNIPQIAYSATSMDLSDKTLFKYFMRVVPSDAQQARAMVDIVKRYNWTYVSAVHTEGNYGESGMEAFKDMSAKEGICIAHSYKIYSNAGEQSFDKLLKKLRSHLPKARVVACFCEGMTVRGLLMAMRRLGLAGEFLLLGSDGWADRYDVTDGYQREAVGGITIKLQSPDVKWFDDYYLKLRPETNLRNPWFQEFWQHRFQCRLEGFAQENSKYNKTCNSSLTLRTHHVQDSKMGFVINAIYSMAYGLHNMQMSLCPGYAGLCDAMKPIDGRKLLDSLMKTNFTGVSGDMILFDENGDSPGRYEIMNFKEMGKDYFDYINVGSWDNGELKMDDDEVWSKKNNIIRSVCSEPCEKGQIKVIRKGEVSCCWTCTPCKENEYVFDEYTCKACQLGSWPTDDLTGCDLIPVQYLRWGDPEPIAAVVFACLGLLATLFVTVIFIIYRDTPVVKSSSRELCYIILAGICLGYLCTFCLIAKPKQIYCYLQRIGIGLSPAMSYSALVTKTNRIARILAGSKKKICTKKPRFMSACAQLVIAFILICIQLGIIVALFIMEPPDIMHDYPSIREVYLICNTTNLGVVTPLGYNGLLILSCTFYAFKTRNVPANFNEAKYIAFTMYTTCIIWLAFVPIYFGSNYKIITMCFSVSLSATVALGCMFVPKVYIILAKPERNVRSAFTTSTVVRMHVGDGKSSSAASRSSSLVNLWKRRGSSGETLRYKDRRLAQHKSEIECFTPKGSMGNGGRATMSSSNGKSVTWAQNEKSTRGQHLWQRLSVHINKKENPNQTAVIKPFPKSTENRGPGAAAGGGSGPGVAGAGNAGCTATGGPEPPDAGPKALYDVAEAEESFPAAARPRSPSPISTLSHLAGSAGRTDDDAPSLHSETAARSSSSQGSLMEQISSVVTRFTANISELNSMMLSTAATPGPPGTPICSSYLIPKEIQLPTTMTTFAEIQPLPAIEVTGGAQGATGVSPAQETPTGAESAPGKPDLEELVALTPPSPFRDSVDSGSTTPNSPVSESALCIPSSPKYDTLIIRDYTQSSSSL
Paired box protein Pax-8, sequence (Q06710 whole entry): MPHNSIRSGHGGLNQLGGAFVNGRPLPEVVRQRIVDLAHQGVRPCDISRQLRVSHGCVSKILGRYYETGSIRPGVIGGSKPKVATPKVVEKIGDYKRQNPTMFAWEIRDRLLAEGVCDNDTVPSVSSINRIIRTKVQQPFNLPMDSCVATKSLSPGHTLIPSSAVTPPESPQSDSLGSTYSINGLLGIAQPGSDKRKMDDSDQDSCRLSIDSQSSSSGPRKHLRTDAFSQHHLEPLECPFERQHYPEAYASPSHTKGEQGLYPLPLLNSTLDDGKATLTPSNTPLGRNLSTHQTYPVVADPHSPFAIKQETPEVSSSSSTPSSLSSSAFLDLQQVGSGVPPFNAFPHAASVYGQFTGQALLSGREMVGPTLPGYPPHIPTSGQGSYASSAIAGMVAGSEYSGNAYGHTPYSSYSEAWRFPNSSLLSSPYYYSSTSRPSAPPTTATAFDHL
Protein disulfide-isomerase, sequence (P07237 whole entry): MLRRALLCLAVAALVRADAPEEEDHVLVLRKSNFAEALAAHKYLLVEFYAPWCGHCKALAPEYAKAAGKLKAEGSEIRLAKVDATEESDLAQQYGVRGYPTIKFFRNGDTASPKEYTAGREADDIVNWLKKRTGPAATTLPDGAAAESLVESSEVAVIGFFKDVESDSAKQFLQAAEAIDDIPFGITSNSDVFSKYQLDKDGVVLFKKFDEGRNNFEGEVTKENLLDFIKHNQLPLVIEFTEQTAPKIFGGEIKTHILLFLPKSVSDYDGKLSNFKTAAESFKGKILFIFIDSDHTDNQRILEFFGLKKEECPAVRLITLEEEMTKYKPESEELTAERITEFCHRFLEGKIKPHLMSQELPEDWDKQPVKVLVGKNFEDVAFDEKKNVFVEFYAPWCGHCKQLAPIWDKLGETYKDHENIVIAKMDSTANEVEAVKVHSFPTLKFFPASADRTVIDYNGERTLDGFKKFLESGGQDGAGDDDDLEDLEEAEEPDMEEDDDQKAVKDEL
ATP-dependent translocase ABCB1, sequence (P08183 whole entry): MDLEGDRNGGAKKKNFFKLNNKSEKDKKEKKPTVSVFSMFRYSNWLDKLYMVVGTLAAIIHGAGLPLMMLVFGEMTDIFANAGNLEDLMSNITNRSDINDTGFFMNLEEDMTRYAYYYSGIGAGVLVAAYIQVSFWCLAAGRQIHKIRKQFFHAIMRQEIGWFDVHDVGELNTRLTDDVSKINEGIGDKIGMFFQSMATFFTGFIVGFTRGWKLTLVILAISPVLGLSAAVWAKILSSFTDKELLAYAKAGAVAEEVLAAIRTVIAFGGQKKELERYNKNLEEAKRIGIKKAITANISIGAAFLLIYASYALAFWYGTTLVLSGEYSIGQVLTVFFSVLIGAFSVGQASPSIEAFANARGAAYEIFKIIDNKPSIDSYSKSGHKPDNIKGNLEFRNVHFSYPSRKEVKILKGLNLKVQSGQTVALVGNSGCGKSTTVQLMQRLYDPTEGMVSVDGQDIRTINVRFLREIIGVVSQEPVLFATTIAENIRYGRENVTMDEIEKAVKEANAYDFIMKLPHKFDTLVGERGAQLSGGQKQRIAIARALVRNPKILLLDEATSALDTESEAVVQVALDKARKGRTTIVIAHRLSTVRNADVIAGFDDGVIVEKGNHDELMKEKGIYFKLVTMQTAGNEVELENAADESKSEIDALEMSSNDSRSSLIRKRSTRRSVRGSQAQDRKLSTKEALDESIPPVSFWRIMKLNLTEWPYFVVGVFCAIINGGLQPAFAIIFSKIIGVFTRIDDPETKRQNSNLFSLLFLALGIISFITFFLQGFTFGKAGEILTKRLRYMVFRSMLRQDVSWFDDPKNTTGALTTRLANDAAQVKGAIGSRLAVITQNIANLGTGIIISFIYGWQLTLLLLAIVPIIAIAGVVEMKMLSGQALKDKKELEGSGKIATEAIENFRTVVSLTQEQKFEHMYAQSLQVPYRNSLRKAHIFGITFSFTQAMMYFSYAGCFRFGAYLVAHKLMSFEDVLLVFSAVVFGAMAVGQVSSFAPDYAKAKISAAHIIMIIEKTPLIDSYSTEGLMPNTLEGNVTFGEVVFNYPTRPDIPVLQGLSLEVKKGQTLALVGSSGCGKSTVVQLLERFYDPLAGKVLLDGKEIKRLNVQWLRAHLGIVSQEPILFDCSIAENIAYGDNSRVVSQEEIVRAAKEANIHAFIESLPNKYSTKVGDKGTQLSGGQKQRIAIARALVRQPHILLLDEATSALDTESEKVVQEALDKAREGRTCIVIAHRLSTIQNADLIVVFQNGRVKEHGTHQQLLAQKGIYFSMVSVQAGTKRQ

SMILES: CCC(C)c1ccc(S(=O)(=O)N2CCN(C(=O)c3ccc(Cl)c(S(=O)(=O)N4CCOCC4)c3)CC2)cc1 (configuration not stated)
AC50 [1]: 5.32 µM (active)
AC50 [2]: > 70 µM (inactive)
AC50 [3]: 6.16 µM (active)
AC50 [4]: 61.3 µM (active)

EC50 [5]: 0.01411 µM
SMILES: Cc1ccc(-c2cc3nc(-c4ccco4)cc(N4CCN(Cc5ccoc5)CC4)n3n2)cc1

SMILES: Cc1ccc(S(=O)(=O)Nc2ccc3c(c2)C(=O)N([C@H](C)CO)C[C@@H](C)[C@H](CN(C)Cc2ccc(C(F)(F)F)cc2)OCCCC[C@H](C)O3)cc1
AC50 [6]: 3.93 µM (active)
AC50 [7]: 22 µM (active)
AC50 [8]: 29.4 µM (active)
AC50 [9]: 27 µM (active)
AC50 [10]: 22.1 µM (active)
AC50 [11]: 44.2 µM (active)
AC50 [12]: 35.5 µM (active)
AC50 [13]: 31 µM (active)
AC50 [14]: 14.9 µM (active)
AC50 [15]: 39.7 µM (active)

SMILES: CC(C)[C@H](NC(=O)c1ccccc1)C(=O)N1CCC[C@H]1C(=O)NCCc1ccccc1Cl
IC50 [16]: > 29.9 µM (inactive)
EC50 [17]: 0.754 µM (active)
IC50 [18]: 1.2 µM (active)
EC50 [19]: > 29.9 µM (inactive)

SMILES: O=C(NCCN1CCCC1)[C@H]1N[C@H]2c3ccc(-c4ccccc4)c(=O)n3C[C@H]2[C@@H]1CO
AC50 [20]: 23.1 µM (active)

AC50 [21]: > 30 µM (inactive)
SMILES: C=CCOc1ccc(CN2CCC(CCOc3ccccc3)(C(=O)N(C)CC)CC2)cc1Cl

EC50 [22]: 5.45 µM
SMILES: CC(C(=O)Nc1cc(F)cc(C#N)c1)N(c1ccccc1Cl)S(C)(=O)=O (configuration not stated)

SMILES: C[C@H](CO)N1C[C@H](C)[C@H](CN(C)S(=O)(=O)c2ccc(F)cc2)Oc2ccc(NS(C)(=O)=O)cc2C1=O
AC50 [23]: 1.19 µM (active)

SMILES: C[C@H](CO)N1C[C@H](C)[C@H](CN(C)C(=O)Nc2ccccc2)OCCCC[C@H](C)Oc2ccc(NC(=O)NC3CCCCC3)cc2C1=O
AC50 [24]: 12 µM (active)

SMILES: CC1=C(N)C(=O)c2ccccc2C1=O
AC50 [25]: 3.74 µM (active)
AC50 [26]: > 70 µM (inactive)

SMILES: COc1c(O[C@@H]2O[C@H](CO)[C@@H](O)[C@H](O)[C@H]2O)cc2c(c1OC)-c1ccc(SC)c(=O)cc1[C@@H](NC(C)=O)CC2 [THIOCOLCHICOSIDE]
AC50 [27]: 50 µM (active)
